Measurements from patent US9783513B2, “STAT3 inhibitors and their anticancer use” (Ohio State Innovation Foundation, priority 2012, dated 2017).
“Also recorded” adds a separate entry of the source.

Tests used:
[1] = test system: P-STAT3 induced by AZD6244; assay: Western blot, P-STAT3 induced by MEK inhibitor AZD6244; format: cell-based, human; settings: 2 h
HUVEC [2] = assay: HUVEC tube formation assay; format: cell-based, human; settings: 300 nM
Procedure: The Endothelial Tube Formation Assay (CBA200, Cell Biolabs Inc., San Diego, Calif., USA) was used in addition to the HUVEC proliferation assay. The ECM gel was thawed at 4° C. and mixed to homogeneity using cooled pipette tips. Cell culture plates (96-well) were bottom-coated with a thin layer of ECM gel (50 μl/well), which was left to polymerize at 37° C. for 60 min. HUVEC (2-3×10^4 cells) were stimulated with VEGF in 150 μl medium and added to each well on the solidified ECM gel. Culture medium was added to each well in the presence or absence of LY5. The plates were incubated at 37° C. for 12-18 hours and the endothelial tubes were quantified using a fluorescent microscope after staining with Calcein AM. Three microscope fields were selected at random and photographed. Tube forming ability was quantified by counting the total number of cell clusters and branches under a 4× objective and […] per well. The results are expressed as mean fold change of branching compared with the control groups. Each experiment was performed at least three times. The 3D in vitro angiogenesis assay was performed essentially as described by manufactures instructions (promo cell). […] The spheroids were photographed after 24 hours and sprout formation assessed as described.

[3] = test system: phosphorylated STAT3 (Tyr705); assay: Western blot, constitutive STAT3 phosphorylation; format: cell-based, human
STAT3 SH2 domain = STAT3 SH2 domain (Homo sapiens, UniProt P40763); assay: Fluorescence polarization (FP) assay; format: binding
Procedure: Screening was performed at physiologically relevant temperature 37° C. Before each experiment, Compound LY-5 was prepared freshly from the stock solution. Compound LY-5 increased its background fluorescence reading at 595 nm at high concentrations, so the control solutions for each concentration were prepared by mixing buffer, LY-5, and fluorescence-labeled peptides together.
Screening was performed at approximately 37° C. STAT3 protein was used at 300 nM. The final concentration of buffer components used for all FP assays was 10 mM HEPES (pH 7.5), 1 mM EDTA, 0.1% Nonidet P-40, 50 mM NaCl, and 20% DMSO. Dithiothreitol was not added. LP-5 was diluted to a series of concentrations (1-200 μM) from a 20 mM stock in DMSO. Proteins were incubated with LP-5 in Eppendorf tubes at room temperature for 60 min prior addition of the 5-carboxyfluorescein labeled peptides. The final concentration of labeled peptide is 10 nM. The mixtures were transferred to a 384 Well Costar Black plate with each concentration repeated in three wells. The mixtures were equilibrated in the incubator at 37° C. for at least 30 min. The FP readings were measured and the experiments were repeated three times. Inhibition curves with standard deviation were fitted and Ki value was determined accordingly.

OS-1 tumor xenografts = assay: OS-1 tumor xenografts; format: in vivo, mouse; settings: 5 mg/kg via IP for 5 days
Procedure: (§1) In order to provide preliminary data regarding potential toxicities from dosing of LY5, C57BL/6 tumor-free mice were treated with daily intraperitoneal (IP) injections of LY5 at 5 or 10 mg/kg for 7 days. […] Additionally, LY5 at a dose of 5 mg/kg via IP for 5 days inhibited growth of OS-1 tumor xenografts (90% tumor volume compared to baseline), while tumor in vehicle treated mice continued to grow (143% tumor volume compared to baseline).

HUVEC [4] = assay: HUVEC migration assays (wound-healing, Boyden chamber); format: cell-based, human; settings: 300 nM, VEGF 10 ng/ml
Procedure: Endothelial cell (HUVEC) migration was monitored using the wound-healing assay described by Thaloor et al. (Cell Growth Differ. (1998) 9(4):305-12). Briefly, 3×10^4 cells/well were seeded in 24-well plates using M200 medium with LSGS. After cells had attached and formed a monolayer on plate completely, we scraped the cells with same width using yellow tip. After scraped, the cells were washed with PBS and incubated with the medium containing VEGF (10 ng/ml)) with or without LY5 (300 nM). Width was photographed at different time intervals (0 and 24 hours) with a magnification of 40× with a microscopic camera system (Leitz Diavert microscope, Leica, Bensheim; AxioCam, Carl Zeiss, Gottingen, Germany).
HUVECs were grown in M200 containing LSGS until 40-50% confluent. Cells were washed with PBS, trypsinized for 5-10 min, collected with 0.2% FBS and centrifuged at 300 g for 5 min. Cells were then resuspended with 0.2% FBS and counted using a Beckman Coulter Z2. A volume of 400 μl of this mix containing 5×10^5 cells was placed on to Boyden Chambers (8 μm pore) inserts with or without LY5 (300 nM) in 24 well plates with 500 μl of M200. VEGF (R and D Systems) in 1% BSA was added to a final concentration of 10 ng/ml in the lower chambers as a chemo-attractant. Cells were pretreated with antibody for 30 min in suspension, then placed in the chambers and incubated at 37° C. 5% C02 for 18-24 hrs. The Boyden chamber porous membranes were then blotted and fixed with 3.7% formaldehyde containing 0.05% crystal violet for 30 min. After repeated washes with distilled water the membranes were air-dried. […] The remainder of the cells on top of the membrane and within the Boyden chamber, were separately incubated in 80% methanol, shaken at 500 rpm for 30 min, and the extracted dye measured at 570 nm. Migration was quantified using the ratio of the migrated cells over the total cells (migrated plus remaining cells) to determine the fraction of migrating cells in each individual experiment. […]

[5] = Toxicity assessment in tumor-free mice; format: in vivo, mouse; settings: C57BL/6 mice, IP 5 or 10 mg/kg daily, 7 days
Procedure: as §1

STAT3 SH2 domain, sequence (P40763 580-670 limits assumed): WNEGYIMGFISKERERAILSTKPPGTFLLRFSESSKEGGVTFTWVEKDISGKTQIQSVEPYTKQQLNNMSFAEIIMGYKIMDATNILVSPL

NS(=O)(=O)c1cccc2c1C(=O)C=C(Nc1cccnc1)C2=O [LY-5, 5,8-dioxo-6-(pyridin-3-ylamino)-5,8-dihydronaphthalene-1-sulfonamide]
P-STAT3 induced by AZD6244 ([1]; HCT-116, LY5+AZD6244 5 μM+10 μM): decrease in STAT3 phosphorylation | P-STAT3 induced by AZD6244 ([1]; MIA-PaCa-2, LY5+AZD 1 μM+10 μM): decrease in STAT3 phosphorylation | VEGF induced HUVEC tube formation (HUVEC [2]): inhibits | constitutive STAT3 phosphorylation at Y705 ([3]; DAOY, UW288-1 and UW426, 0-5 μM, 2 h): decrease in STAT3 phosphorylation | constitutive STAT3 phosphorylation ([3]; EW8, 0.5-1 μM, 8 h): decrease in STAT3 phosphorylation; also recorded: dose-dependent decrease in formation of P-STAT3 | P-STAT3 ([3]; FIG. 40, HeLa / OS-17 as printed, 0-5 μM, 2 h): decrease in STAT3 phosphorylation | constitutive STAT3 phosphorylation at Y705 ([3]; HCT-116, 0-5 μM, 2 h, vs LLL12): inhibits constitutive STAT3 phosphorylation at Y705 and is more potent than LLL12 | P-STAT3 ([3]; OS-17, 0-5 μM, 2 h): decrease in STAT3 phosphorylation | P-STAT3 ([3]; RD2, 0-2.5 μM, 2 h, FIG. 58): decrease in STAT3 phosphorylation | constitutive STAT3 phosphorylation at Y705 ([3]; RH30, RD2 and EW8, 0-1 μM, 2 h): decrease in STAT3 phosphorylation | constitutive STAT3 phosphorylation at Y705 ([3]; RH30, 0-1 μM, 2 h, FIG. 57): decrease in STAT3 phosphorylation | STAT3 phosphorylation at Y705 and S727 ([3]; RH30, 5 μM in DMSO or ethanol, 2 h): decrease in STAT3 phosphorylation at Y705 and S727 | concentration almost completely inhibiting Tyr705 phosphorylation ([3]; RH30, 16 h): 0.5 µM | constitutive STAT3 phosphorylation ([3]; RH30, LY-3 0.5-2.5 μM, LY-5 0.25-1 μM, 16 h): decrease in STAT3 phosphorylation; also recorded: reduced in a dose-dependent manner | P-STAT3 ([3]; RH30 and RD2, 0-2.5 μM, 2 h): decrease in STAT3 phosphorylation | constitutive STAT3 phosphorylation at Y705 ([3]; SW480, 0-5 μM, 2 h): decrease in STAT3 phosphorylation | constitutive STAT3 phosphorylation at Y705 ([3]; UW288-1 and UW426, 0-1 μM, 2 h): decrease in STAT3 phosphorylation | P-STAT3 ([3]; UW288-1 and UW426, 0-5 μM, 2 h, FIG. 38): decrease in STAT3 phosphorylation | binding to STAT3 SH2 protein (STAT3 SH2 domain; 37° C., FIG. 8): binds | Ki (STAT3 SH2 domain; 37° C., STAT3 300 nM, labeled peptide 10 nM): 2.5 µM | experimental ΔG value (STAT3 SH2 domain; from FP Ki): -7.9 kcal/mol | tumor volume compared to baseline (OS-1 tumor xenografts): 90% | VEGF induced HUVEC cell migration (wound width) (HUVEC [4]): decreased cell migration | percentage of migration (migrated cells over total cells) (HUVEC [4]): decreased percentage of migration | VEGF induced HUVEC cell migration (wound width) (HUVEC [4]; listed as LY5): significantly blocked | erythrocyte, leukocyte and platelet parameters [5]: no differences | organ weights as a percentage of body weight [5]: did not vary significantly | histologic evaluation of organs ([5]; n=2): no abnormalities
